“And” between values parts separate entries of the source, which are not always exact repeats. Identical values can stand only once. Like-named read-outs stand apart in the source and are kept apart here. Each block holds one compound with its values, some of them ahead of it.
Columns and labels:
[1] = system: HeLa cells; details: cited from earlier work
[2] = system: HeLa cells; assay: Cell antiproliferative activity assay (CCK8); format: cell-based, human; details: for inhibition at 0.25 µM: 250 nM; for inhibition at 0.5 µM: 500 nM; for inhibition at 1 µM: 1000 nM; for inhibition at 2 µM: 2000 nM; for inhibition at 4 µM: 4000 nM; for inhibition at 8 µM: 8000 nM; for inhibition at 16 µM: 16000 nM
Procedure: Cell antiproliferative activity was evaluated by the Cell Counting Kit-8 (CCK8, DOJINDO, Japan) assay. The cells were seeded at a density of 2,000 cells per well into 96-well microplate in 100 μl of growth medium. Cells were incubated at 37°C and 5% CO2 overnight. The next day, 100 μl per well of diluted inhibitor in growth medium was added with the final concentration from 0.1 nM to 100 μM. The cells were treated with DMSO as control. A series of dilutions are made in 0.1% DMSO in assay medium so that the final concentration of DMSO is 0.1% in all of treatments. Cells were incubated at 37°C and 5% CO2 for 48 h. Then, 10 μl of CCK8 was added to each well. The plates were incubated at 37°C for 2 h; after that, the plates were recorded by measuring absorbance at 450 nm with the reference wavelength of 630 nm using an EnVision Multilabel Reader (PerkinElmer). The IC50 values were calculated using GraphPad Prism 6.0 software and determined by the concentration causing a half-maximal percent activity. All assays were conducted with three parallel samples and three repetitions.

[3] = system: HeLa cells; assay: Flow cytometry detection for cell apoptosis (Annexin V/PI); format: cell-based, human; details: for Q3: FITC-A+ , PE-A- Freq. of Parent / Q2: FITC-A+ , PE-A+ Freq. of Parent / Q1 (flow cytometry quadrant, Figure 4A) / Q4 (flow cytometry quadrant, Figure 4A): Annexin V/PI; for Q3: FITC-A+ , PE-A- Freq. of Parent / Q2: FITC-A+ , PE-A+ Freq. of Parent / Q2+Q3 (as fraction) / Q2+Q3 (column without head, sum on percent scale): single samples
Procedure: Cell-apoptosis analysis was carried out by flow cytometry using the Annexin V/PI apoptosis kit (Solarbio, China) according to the manufacturer’s manual. Briefly, HeLa (5 × 10^4/well) cells were seeded in 12-well plates for 24 h and then treated with 0.1% DMSO (as control) or various concentrations of compounds 4d, 4k, and 4l for 72 h, respectively. Cells were harvested, washed with PBS, and then incubated with 100 μl of 1 × Annexin V binding buffer containing 1 μl FITC Annexin V for 10 min at RT in the dark. Cells were incubated for another 5 min at room temperature (RT) in the dark after 1 μl PI was added. PBS (200 µl) was added to each tube for flow cytometry analysis (BriCyte E6). The percentages of apoptotic cells were analyzed using FlowJo soft.

[4] = system: HeLa cells; assay: Colony formation assay; format: cell-based, human; details: for effect on cell colony formation: 2 weeks
Procedure: HeLa cells were seeded in six-well plates at the density of 500/well for 24 h, and then treated with 0.1% DMSO (as control), various concentrations of compounds 4d, 4k, and 4l, respectively. The cells were incubated for 2 weeks in a 5% CO2 environment at 37°C for colony formation. The media was gently removed from each of the plates, and then each plate was washed with PBS twice. The colonies were fixed with 4% polyformaldehyde for 10 min and then wash the cells with ddH2O twice. Stain with 1 ml Crystal Violet Staining Solution (Beyotime, China) for 10 min. Wash excess crystal violet with ddH2O and allow dishes to dry. Take pictures of the plate and count the colonies.

[5] = chromenocarbazole tethered 1,2,3-triazoles, ref Chavan et al., 2019, read-out: IC50 antiproliferative activity in HeLa cells
[6] = amidino 2-substituted benzimidazoles linked to 1,2,3-triazoles, ref Raic-Malic et al., read-out: IC50 antiproliferation activities against HeLa cells
[7] = Homo sapiens, HeLa, 48 h, HeLa cells, CCK8, 48 h, mean ± SD, n = 3, read-out: IC50 (μM) HeLa
[8] = Homo sapiens, HeLa, HELA 2000cells/well, supplement DataSheet2, Repeat1, read-out: IC50 Repeat1
[9] = Homo sapiens, HeLa, HELA 2000cells/well, supplement DataSheet2, Repeat 2, read-out: IC50 Repeat 2
[10] = Homo sapiens, HeLa, HELA 2000cells/well, supplement DataSheet2, mean of two repeats ± SD, read-out: IC50 mean±SD
[11] = Homo sapiens, HELA 2000cells/well, Repeat1, read-out: Inhibition (%) Repeat1
[12] = Homo sapiens, HELA 2000cells/well, Repeat2, read-out: Inhibition (%) Repeat2

Compound: N#CC1=C(N)Oc2c(ccc3[nH]c4ccccc4c23)C12C(=O)N(Cc1cn(Cc3ccc(Cl)cc3)nn1)c1ccc(Br)cc12 (stereo not drawn) [6s]
- IC50 [1, 5]: 3.83 µM

Compound: N#CC1=C(N)Oc2c(ccc3[nH]c4ccccc4c23)C12C(=O)N(Cc1cn(Cc3ccc(C(F)(F)F)cc3)nn1)c1ccccc12 (stereo not drawn) [6g]
- IC50 [1, 5]: 3.54 µM

Compound: COc1ccc2c(-n3cc(-c4cc(OC)c(OC)c(OC)c4)nn3)c(C(=O)Nc3ccccc3)oc2c1 [17 g, 6-methoxy-N-phenyl-3-[4-(3,4,5-trimethoxyphenyl)-1H-1,2,3-triazol-1-yl] benzofuran-2 carboxamide]
- IC50 ([1]; ref Qi et al., 2020, read-out: IC50 antiproliferative activities against HeLa cells): 0.73 ± 0.67 µM

Compound: Cc1ccc(Cn2cc(CN3C(=O)C4(C(C#N)=C(N)Oc5c4ccc4[nH]c6ccccc6c54)c4ccccc43)nn2)cc1 (stereo not drawn) [6b]
- IC50 [1, 5]: 4.05 µM

Compound: c1ccc(Cn2cc(COc3ccc(-c4nc5cc(C6=NCCN6)ccc5[nH]4)cc3)nn2)cc1 [11f]
- IC50 [1, 6]: 6.63 µM

Compound: CC(C)NC(=N)c1ccc2[nH]c(-c3ccc(OCc4cn(Cc5ccc(Cl)cc5)nn4)cc3)nc2c1 [10c]
- IC50 [1, 6]: 17.5 µM

Compound: Cc1ccc(Cn2cc(CN3C(=O)C4(C(C#N)=C(N)Oc5c4ccc4[nH]c6ccccc6c54)c4cc(F)ccc43)nn2)cc1 (stereo not drawn) [6u]
- IC50 [1, 5]: 3.35 µM

- IC50 [2, 7]: 8.21 ± 1.05 µM
- IC50 [2, 8]: 7.21 µM
- IC50 [2, 9]: 9.31 µM
- IC50 [2, 10]: 8.21 ± 1.05 µM
- melting point: 110 to 114 °C
Compound: CCOc1cccc(-n2cc(-c3cccc(Nc4ncnc5cc(OCCOC)c(OCCOC)cc45)c3)nn2)c1 [Compound 4n, [6,7-Bis-(2-methoxy-ethoxy)-quinazolin-4-yl]-{3-[1-(3-ethoxy-phenyl)-1H-[1,2,3]triazol-4-yl]-phenyl}-amine]
- inhibition at 0.25 µM [2, 11]: 0%
- inhibition at 0.25 µM [2, 12]: 2.69%
- inhibition at 0.5 µM [2, 11]: 4.33%
- inhibition at 0.5 µM [2, 12]: 4.33%
- inhibition at 1 µM [2, 11]: 7.26%
- inhibition at 1 µM [2, 12]: 6.45%
- inhibition at 2 µM [2, 11]: 12.8%
- inhibition at 2 µM [2, 12]: 10.8%
- inhibition at 4 µM [2, 11]: 31.2%
- inhibition at 4 µM [2, 12]: 18.5%
- inhibition at 8 µM [2, 11]: 51.9%
- inhibition at 8 µM [2, 12]: 45.5%
- inhibition at 16 µM [2, 11]: 77.1%
- inhibition at 16 µM [2, 12]: 69.6%
- Q3: FITC-A+ , PE-A- Freq. of Parent ([3]; 3 μM, 72 h): 0.75% and 1.15% and 1.24%
- Q2: FITC-A+ , PE-A+ Freq. of Parent ([3]; 6 μM, 72 h): 21.9%
- Q3: FITC-A+ , PE-A- Freq. of Parent ([3]; 6 μM, 72 h): 5.30% and 1.36% and 0.76%
- Q2+Q3 (as fraction) ([3]; 6 μM): 0.272 and 0.3116 and 0.2626
- Q2: FITC-A+ , PE-A+ Freq. of Parent ([3]; 12 μM, 72 h): 61.9%
- Q3: FITC-A+ , PE-A- Freq. of Parent ([3]; 12 μM, 72 h): 2.53% and 1.19% and 1.05%
- Q2+Q3 (as fraction) ([3]; 12 μM): 0.6443 and 0.5879 and 0.6565

- IC50 [2, 7]: 7.02 ± 0.04 µM
- IC50 [2, 8]: 7.07 µM
- IC50 [2, 9]: 6.98 µM
- IC50 [2, 10]: 7.025 ± 0.0445 µM
Compound: COCCOc1cc2ncnc(Nc3cccc(-c4cn(Cc5cc(Br)cc(Br)c5)nn4)c3)c2cc1OCCOC [Compound 4d, [6,7-Bis-(2-methoxy-ethoxy)-quinazolin-4-yl]-{3-[1-(3,5-dibromo-benzyl)-1H-[1,2,3]triazol-4-yl]-phenyl}-amine]
- inhibition at 0.25 µM [2, 11]: 9.75%
- inhibition at 0.25 µM [2, 12]: 0%
- inhibition at 0.5 µM [2, 11]: 13%
- inhibition at 0.5 µM [2, 12]: 13.6%
- inhibition at 1 µM [2, 11]: 16.9%
- inhibition at 1 µM [2, 12]: 14%
- inhibition at 2 µM [2, 11]: 17%
- inhibition at 2 µM [2, 12]: 15.3%
- inhibition at 4 µM [2, 11]: 25.3%
- inhibition at 4 µM [2, 12]: 26.6%
- inhibition at 8 µM [2, 11]: 53.2%
- inhibition at 8 µM [2, 12]: 54.6%
- inhibition at 16 µM [2, 11]: 78.2%
- inhibition at 16 µM [2, 12]: 78.4%
- effect on cell colony formation ([4]; 6 μM): decrease the number of colonies
- effect on cell colony formation ([4]; 12 μM): entirely inhibited
- Number of Colonies /well ([4]; 12 uM, repeats 1-3): 0
- Q1 (flow cytometry quadrant, Figure 4A) ([3]; 3 μM, 72 h): 5.78%
- Q4 (flow cytometry quadrant, Figure 4A) ([3]; 3 μM, 72 h): 84.2%
- Q2: FITC-A+ , PE-A+ Freq. of Parent ([3]; 3 μM, 72 h): 9.25%
- Q3: FITC-A+ , PE-A- Freq. of Parent ([3]; 3 μM, 72 h): 0.82%
- Q2: FITC-A+ , PE-A+ Freq. of Parent ([3]; 3 μM, 72 h, listed as e4): 6.79% and 7.35% and 9.25%
- Q3: FITC-A+ , PE-A- Freq. of Parent ([3]; 3 μM, 72 h, listed as e4): 1.73% and 1.08% and 0.82%
- Q2+Q3 (column without head, sum on percent scale) ([3]; 3 μM, listed as e4): 8.52 and 8.43 and 10.07
- Q1 (flow cytometry quadrant, Figure 4A) ([3]; 6 μM, 72 h): 5.52%
- Q4 (flow cytometry quadrant, Figure 4A) ([3]; 6 μM, 72 h): 81.2%
- Q2: FITC-A+ , PE-A+ Freq. of Parent ([3]; 6 μM, 72 h): 10.5%
- Q3: FITC-A+ , PE-A- Freq. of Parent ([3]; 6 μM, 72 h): 2.69%
- Q2: FITC-A+ , PE-A+ Freq. of Parent ([3]; 6 μM, 72 h, listed as e4): 8.90% and 10.1% and 10.5%
- Q3: FITC-A+ , PE-A- Freq. of Parent ([3]; 6 μM, 72 h, listed as e4): 3.61% and 5.29% and 2.69%
- Q2+Q3 (column without head, sum on percent scale) ([3]; 6 μM, listed as e4): 12.51 and 15.39 and 13.19
- Q1 (flow cytometry quadrant, Figure 4A) ([3]; 12 μM, 72 h): 2.40%
- Q4 (flow cytometry quadrant, Figure 4A) ([3]; 12 μM, 72 h): 5.68%
- Q2: FITC-A+ , PE-A+ Freq. of Parent ([3]; 12 μM, 72 h): 86.4%
- Q3: FITC-A+ , PE-A- Freq. of Parent ([3]; 12 μM, 72 h): 5.49%
- Q2: FITC-A+ , PE-A+ Freq. of Parent ([3]; 12 μM, 72 h, listed as e4): 86.4% and 80.4% and 81.8%
- Q3: FITC-A+ , PE-A- Freq. of Parent ([3]; 12 μM, 72 h, listed as e4): 5.49% and 3.94% and 3.82%
- cell apoptosis in HeLa cells, percentage ([3]; 12 μM, 72 h, three independent experiments): 87.28%
- Q2+Q3 (column without head, sum on percent scale) ([3]; 12 μM, listed as e4): 91.89 and 84.34 and 85.62

- IC50 ([2]; HeLa cells, CCK8, 48 h, mean ± SD, n = 3, read-out: IC50 (μM) HeLa): 4.36 ± 0.15 µM
- IC50 [2, 7]: 4.16 µM
- IC50 [2, 8]: 4.41 µM
- IC50 [2, 9]: 4.3 µM
- IC50 [2, 10]: 4.36 ± 0.054 µM
- melting point: 93 to 97 °C
Compound: COCCOc1cc2ncnc(Nc3cccc(-c4cn(-c5ccccc5Br)nn4)c3)c2cc1OCCOC [Compound 4i, [6,7-Bis-(2-methoxy-ethoxy)-quinazolin-4-yl]-{3-[1-(2-bromo-phenyl)-1H-[1,2,3]triazol-4-yl]-phenyl}-amine]
- inhibition at 0.25 µM [2, 11]: 2.62%
- inhibition at 0.25 µM [2, 12]: 0%
- inhibition at 0.5 µM [2, 11]: 6.42%
- inhibition at 0.5 µM [2, 12]: 5.74%
- inhibition at 1 µM [2, 11]: 9.04%
- inhibition at 1 µM [2, 12]: 6.59%
- inhibition at 2 µM [2, 11]: 15.2%
- inhibition at 2 µM [2, 12]: 17.7%
- inhibition at 4 µM [2, 11]: 41.6%
- inhibition at 4 µM [2, 12]: 42.6%
- inhibition at 8 µM [2, 11]: 83.4%
- inhibition at 8 µM [2, 12]: 83.9%
- inhibition at 16 µM [2, 11]: 88.1%
- inhibition at 16 µM [2, 12]: 88.9%

— publication PMC8802806, “Synthesis and Antitumor Activity of Erlotinib Derivatives Linked With 1,2,3-Triazole” (Frontiers in Pharmacology, 2022)
